Experimental data reported in US8597901B2, “2,5-diketo-L-gluconic acid reductases and methods of use” (Danisco US Inc., priority 2000, dated 2013).
Read-outs that look alike come from different tables or passages of the source.

Legend:
[1] = system: environmental 2,5-diketo-D-gluconic acid reductase DKGRc (pI-14, SEQ ID NO: 8) variant R238Q; assay: Kinetic parameters of purified R238Q mutant of DKGRc; format: biochemical, environmental DNA (uncultured, soil)
Description: Site specific mutants of DKGRc were constructed by overlap extension PCR. […] The oligonucleotides:
were complementary to the antisense and sense strands, respectively, and introduced the changes K232Q and R238Q, respectively. The bases that differ from the native sequence are underlined. Each oligonucleotide was paired with the appropriate adapter primer (i.e. primers for amplifying the gene for insertion into expression vectors) in PCR's to generate fragments of the DKGRc gene that incorporated one of the two changes. Primers were also synthesized that matched the native DNA sequence. When used with the appropriate adapter primer, these generated an unmodified fragment of the gene. […] The amplification of the full-length genes was driven by addition of both adapter primers.

[2] = system: environmental 2,5-diketo-D-gluconic acid reductase (form not stated); conditions: read-out: apparent Km of stimulation by inorganic phosphate, NADH-dependent activity

For `O=C(O)C(=O)[C@@H](O)[C@H](O)C(=O)CO` [DKG, 2,5-diketo-D-gluconic acid], the “Km for 2,5-diketo-D-gluconic acid, increase over native” value ([1]; R238Q versus native DKGRc) was 7.7 fold and the Km ([1]; R238Q, read-out: Km for 2,5-diketo-D-gluconic acid) was 440 µM.
With `NC(=O)C1=CN([C@@H]2O[C@H](COP(=O)(O)OP(=O)(O)OC[C@H]3O[C@@H](n4cnc5c(N)ncnc54)[C@H](O)[C@@H]3O)[C@@H](O)[C@H]2O)C=CC1` [NADH] the “Km for NADH, effect of mutation” value ([1]; R238Q versus native DKGRc) was “not affected by the mutation”, the “catalytic efficiency with NADH as cosubstrate, increase over native” value ([1]; R238Q versus native DKGRc) was 7 fold and the kcat ([1]; R238Q, NADH as cosubstrate) was 12 S^−1. It also gave a Km ([1]; R238Q, NADH as cosubstrate, read-out: Km, nadh) of 1900 µM.
With `NC(=O)C1=CN([C@@H]2O[C@H](COP(=O)(O)OP(=O)(O)OC[C@H]3O[C@@H](n4cnc5c(N)ncnc54)[C@H](OP(=O)(O)O)[C@@H]3O)[C@@H](O)[C@H]2O)C=CC1` [NADPH] the “Km for NADPH, increase over native” value ([1]; R238Q versus native DKGRc) was 18 fold, the “kcat, increase over native” value ([1]; R238Q versus native DKGRc, NADPH) was 3.5 fold and the Km ([1]; read-out: Km, nadph, R238Q, NADPH as cosubstrate) was 55 µM.
`O=P(O)(O)O` [Pi] was tested, and the Km [2] was 1300 µM.
